Test results taken from US20080287526A1, “Pharmaceuticals for treating or preventing oral diseases” (HAWLEY & HAZEL (BVI) COMPANY LIMITED, priority 2007, published 2008).

Assays:
TNF-α = assay: Anti-inflammatory effect in KB cells, LUMINEX analysis of TNF-α; type: cell-based, human; conditions: KB cell supernatant; the larger the value, the stronger the anti-inflammatory ability; test concentration not given
Experimental: (§1) Anti-inflammatory activity was assessed using the KB cell (the epidermis cancer cell in human oral cavity). During the experiment, the KB cell inoculated in the cultivating plate was treated with or without positive control or compound Morusin A. After the treatment, the supernatant of the cultivating medium was collected and stored in −80° C. refrigerator. Inflammation was assessed by measuring several inflammation markers: Prostaglandin E2 (PGE2) in the supernatant was detected by Enzyme-linked immunosorbent assay, and LUMINEX™ multifunctional liquid-phase chip analysis system was used for the detection of granulocyte monocyte colony stimulating factor (GM-CSF), tumor necrosis factor-alpha (TNF-α), and interleukins 1-beta and 6 (IL-1β and IL-6).
(§2) LUMINEX™ multifunctional liquid-phase chip analyses of GM-CSF, TNF-α, IL-1 and IL-6: The 96-well plate was enclosed with enclosing liquid for 30 minutes. Fluorescent microspheres were added into the 96-well plate after dilution. The standard and the samples to be measured were added, and incubated overnight at 4° C. The next day, the supernatant was discarded and 50 μL GM-CSF, TNF-α, IL-1β and IL-6 antibodies were added to each well. After being rinsed for 4 times, the 96-well plate was placed in a shaking table, which was in ambient temperature, to keep the plate away from light for one hour. […]

IL-1β = assay: Anti-inflammatory effect in KB cells, LUMINEX analysis of IL-1β; type: cell-based, human; conditions: KB cell supernatant; the larger the value, the stronger the anti-inflammatory ability; test concentration not given
Experimental: as §1, §2

GM-CSF = assay: Anti-inflammatory effect in KB cells, LUMINEX analysis of GM-CSF; type: cell-based, human; conditions: KB cell supernatant; the larger the value, the stronger the anti-inflammatory ability; test concentration not given
Experimental: as §1, §2

IL-6 = assay: Anti-inflammatory effect in KB cells, LUMINEX analysis of IL-6; type: cell-based, human; conditions: KB cell supernatant; the larger the value, the stronger the anti-inflammatory ability; test concentration not given
Experimental: as §1, §2

[1] = system: Porphyromonas gingivalis ATCC 33277; assay: Antibacterial MIC, micro-dilution method; type: cell-based; conditions: minimum inhibitive concentration; anaerobic; 2-fold dilution series 250-0.12 mg/L, ceiling 250 ppm; 37 °C, 18-24 h; unit not given
Experimental: (§3) A single colony was picked from the Trypticase Digested Soybean peptone agar blood plate (TSA5B) of ordinarily stored bacteria species and used to inoculate corresponding broth culture medium, which was cultivated in a microaerobic environment (P.g needs anaerobic cultivation) with 95% air, 5% CO2 at 37.0° C.±1.0° C., wherein S.m was cultivated for 18-24 h, and the remaining two species were cultivated for 40-48 h. Then corresponding broth cultivate medium was used to adjust the turbidity of the bacteria suspension to 0.5^# McFarland standard, equivalent to 1.0×10^8 CFU/mL.
(§4) The operating steps were:
(§5) a. Preparation of the stock solution of antibacterial pharmaceutical: 1% stock solution of various antibacterial pharmaceuticals was prepared with 100% pure ethanol as solvent. The prepared stock solution was filtered to eliminate bacteria, and was distributed into small portions to be used.
(§6) b. Range of measured concentration: the present experiment used 250 ppm as the ceiling measured concentration of the anti-bacterial pharmaceutical.
(§7) c. Measuring method: micro-dilution method.
(§8) First, 100 μL broth medium was added to each well of the 96-well plate, then 100 μL sterile anti-bacteria pharmaceutical solution, which was diluted 10-fold (1000 mg/L), was added to each well of the first column. Then each well of the first column was mixed repeatedly for 7-8 times using a multi-channel micropipet, and 100 μL sample was transferred to the second column after sufficiently mixing the pharmaceutical with TSB. After being mixed similarly for 7-8 times, 100 μL sample was transferred to the third column, and likewise to the wells of the remaining columns. Thus the concentration of the pharmaceutical was gradiently diluted 2-fold between the columns, from 500 mg/L in the first column to 0.24 mg/L in the last column (the 12th column).
(§9) The bacteria to be tested and the standard bacteria were prepared using the same method as above. […] 0.12 mg/L, and the final inoculation quantity was about […] or 5×10^6 bacteria in each well. […]

[2] = system: Streptococcus mutans ATCC 25175; assay: Antibacterial MIC, micro-dilution method; type: cell-based; conditions: minimum inhibitive concentration; 2-fold dilution series 250-0.12 mg/L, ceiling 250 ppm; 37 °C, 18-24 h; unit not given
Experimental: as §3, §4, §5, §6, §7, §8, §9

[3] = system: Actinomyces viscosus ATCC 27044; assay: Antibacterial MIC, micro-dilution method; type: cell-based; conditions: minimum inhibitive concentration; 2-fold dilution series 250-0.12 mg/L, ceiling 250 ppm; 37 °C, 18-24 h; unit not given
Experimental: as §3, §4, §5, §6, §7, §8, §9

MIC, P. g ATCC 33277 [1]: 15.6
MIC, S. m ATCC 25175 [2]: 3.9
MIC, A. v ATCC 27044 [3]: 3.9
SMILES: CC1=C[C@H]2c3c(O)cc(-c4cc5ccc(O)cc5o4)cc3O[C@]3(c4ccc(O)cc4O)Oc4cc(O)ccc4[C@H](C1)[C@@H]23 [Morusin A]
anti-inflammatory effect, TNF-α (TNF-α): 93%
anti-inflammatory effect, IL-1β (IL-1β): 23%
anti-inflammatory effect, GM-CSF (GM-CSF): 11%
anti-inflammatory effect, IL-6 (IL-6): 53%
